What was measured:
Type in all cases: functional, cell-based
HeLa = test: Cytotoxicity against human HeLa cells by MTT assay
Bel-7402 = test: Cytotoxicity against human Bel7402 cells by MTT assay
BGC-823 = test: Cytotoxicity against human BGC823 cells by MTT assay
HepG2 = test: Cytotoxicity against human HepG2 cells by MTT assay
A549 = test: Cytotoxicity against human A549 cells by MTT assay
A-375 = test: Cytotoxicity against human A375 cells by MTT assay
[1] = Cytotoxicity against human 786-O cells by MTT assay; details: 786-0
HT-29 = test: Cytotoxicity against human HT-29 cells by MTT assay
769-P = test: Cytotoxicity against human 769-P cells by MTT assay
KB = test: Cytotoxicity against human KB cells by MTT assay

| SMILES | IC50 (HeLa) [µM] | IC50 (Bel-7402) [µM] | IC50 (BGC-823) [µM] | IC50 (HepG2) [µM] | IC50 (A549) [µM] | IC50 (A-375) [µM] | IC50 [1] [µM] | IC50 (HT-29) [µM] | IC50 (769-P) [µM] | IC50 (KB) [µM] |
| --- | --- | --- | --- | --- | --- | --- | --- | --- | --- | --- |
| Cc1nccc2c3ccccc3n(CCCc3ccccc3)c12 | > 1000 | 449 | 987 | 449 | – | – | – | – | – | – |
| CC(=O)n1c2ccccc2c2ccnc(/C=C/c3ccc([N+](=O)[O-])cc3)c21 | > 200 | > 200 | > 200 | 197 | > 200 | > 200 | > 200 | > 200 | > 200 | > 200 |
| CCCCOc1ccc2c3cc[n+](Cc4ccccc4)c(/C=C/c4ccc([N+](=O)[O-])cc4)c3n(CCCc3ccccc3)c2c1 | 2.9 | 1.5 | 4.1 | 1.3 | 2.8 | 4.5 | 2.7 | 2.5 | 3.1 | 2.4 |
| C(=C\c1nccc2c1[nH]c1ccccc12)/c1ccccc1 | 139 | 190 | > 200 | 171 | 36.7 | 71.4 | 37.5 | 62.9 | 7.8 | > 200 |
| CCCCn1c2ccccc2c2ccnc(C)c21 | 102 | 145 | 264 | 145 | – | – | – | – | – | – |
| COc1ccc(/C=C/c2c3c(cc[n+]2Cc2ccccc2)c2ccccc2n3CCCc2ccccc2)cc1 | 4.5 | 2.9 | 0.46 | 2.1 | 3.9 | 0.68 | 3.2 | 4.3 | 4.6 | 0.93 |
| COc1ccc(/C=C/c2nccc3c2[nH]c2ccccc23)cc1 | 142 | 118 | 167 | 60.5 | 47.1 | 42.2 | 12.9 | 21.3 | 25.6 | 29.5 |
| COc1cc(/C=C/c2nccc3c2[nH]c2ccccc23)cc(OC)c1OC | 50.5 | 34.6 | 66.2 | 32.2 | 12.8 | 23.9 | 14.4 | 27.8 | 5.7 | 24.6 |
| CCCCOc1ccc2c3ccnc(/C=C/c4ccc([N+](=O)[O-])cc4)c3n(CCCc3ccccc3)c2c1 | > 200 | > 200 | > 200 | > 200 | > 200 | > 200 | > 200 | > 200 | > 200 | > 200 |
| CCCCn1c2ccccc2c2cc[n+](Cc3ccccc3)c(/C=C/c3ccc(OC)cc3)c21 | 6.7 | 7.7 | 21.8 | 6.7 | 9.1 | 8.4 | 11.2 | 7.8 | 5.1 | 3.9 |
| COc1ccc(/C=C/c2c3[nH]c4ccccc4c3cc[n+]2Cc2ccccc2)cc1 | 32.1 | 22.5 | 22.9 | 9.6 | 10.8 | 28.2 | 10 | 9.4 | 4.9 | 17.9 |
| CCCCn1c2ccccc2c2ccnc(/C=C/c3ccc(OC)cc3)c21 | 88.8 | 29.7 | 141 | 66 | 38.1 | 59.5 | 67.4 | > 200 | 25.2 | 30.1 |
| Cc1nccc2c1[nH]c1ccccc12 [HARMAN] | 186 | 151 | 215 | 115 | – | – | – | – | – | – |
| CCCCOc1ccc2c3ccnc(/C=C/c4ccc(OC)cc4)c3n(CCCc3ccccc3)c2c1 | 92.3 | > 200 | > 200 | 92.9 | 78.6 | 64.3 | 89.1 | 54.3 | 62.9 | 150 |
| CC(=O)n1c2ccccc2c2cc[n+](Cc3ccccc3)c(/C=C/c3ccc([N+](=O)[O-])cc3)c21 | 14.4 | 17.9 | 14.8 | 5.2 | 7.6 | 25.3 | 28.6 | 10.5 | 19.8 | 15.4 |
| O=[N+]([O-])c1ccc(/C=C/c2nccc3c4ccccc4n(CCCc4ccccc4)c23)cc1 | > 200 | > 200 | > 200 | > 200 | > 200 | > 200 | > 200 | > 200 | > 200 | > 200 |
| CCCCOc1ccc2c3cc[n+](Cc4ccccc4)c(/C=C/c4ccc(OC)cc4)c3n(CCCc3ccccc3)c2c1 | 6.8 | 1.6 | 7.1 | 8.9 | 3.4 | 7.3 | 4.6 | 3.2 | 8.2 | 2.7 |
| COc1ccc(/C=C/c2nccc3c4ccccc4n(CCCc4ccccc4)c23)cc1 | > 200 | > 200 | > 200 | 186 | 127 | > 200 | 92.3 | > 200 | 123 | 58.9 |
